Patent US12624044B2, “SMARCA degraders and uses thereof” (Kymera Therapeutics, Inc., priority 2019, dated 2026)

Tests used:
SMARCA2 = SMARCA2 (Homo sapiens, UniProt P51531); assay: MSD SMARCA2 degradation in A549 cell line; format: cell-based; conditions: 24 h; for Dmax: A549, A549 cells; for DC50: A549 cells, read-out: SMARCA2 MSD A549 degradation 24 h: Average external-Abs DC50
Procedure, shortened: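 A549 cells treated 24 h with compound at final 0.152-1000 nM (3-fold series, DMSO control). Lysates analyzed by MSD immunoassay using anti-SMARCA2/BRM detection and SULFO-TAG secondary antibodies; maximal degradation (Dmax %) reported as letter bins.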

SMARCA4 = target: T1, SMARCA4 (Homo sapiens, UniProt P51532); assay: SMARCA4 Western blot MV4-11 degradation; format: cell-based; conditions: 24 h; for Dmax: MV4-11, MV4-11 cells, read-out: SMARCA4 WB MV411 degradation 24 h: Average Dmax %; for DC50: MV4-11 cells, read-out: SMARCA4 WB MV411 degradation 24 h: Average external-Abs DC50
T1 construct: SMARCA2 and SMARCA4 protein degradation in MV4-11 cells; endogenous in cells; host or cells: MV4-11
Protocol: Cells were seeded into 6-well plates (MV4-11: 4×10^6 cells/well/1 ml) and 1 ml of 2× compound solution was added into the well to make the final concentration and the plates were mixed well and incubated for 24 hours (No cytotoxicity was observed). The cell were collected with media and spun at 3000 rpm for 5 minutes. The supernatant was aspirated and the well and the cells were washed with cold PBS once and combined for centrifugation again; the supernatant aspirated again. 200 ul pre-chilled RIPAlysis buffer (Boston BioProducts BP-115D) with protease/phosphatase inhibitor (Roche 05892791001/Roche 04906837001) was directly added into the tube to lyze the cells for 20 minutes on ice. The cell lysate were collected into EP tubes and spun at 13000 rpm for 20 minutes and 72 ul supernatant was transferred to a fresh EP tube containing 18 ul of 5× loading buffer (Beyotime Bio P0015) to make the loading samples. The samples were heated to 100° C. for 10 minutes and cooled to RT and microcentrifuged. 20 ul of samples were loaded onto SDS-PAGE gel (Novex, WG1402BOX) and the gel was run at 80 V for 20 minutes and 120 V for 1.5 hours. The samples were electrotransfer to a NC membrane using wet-transfer method with 250 mA for 2.5 hours. The membrane was blocked with LICOR blocking buffer (LI-COR, 927-50000) for 1 hour. The membrane was washed three times with TBST (CST #9997S), 5 minutes each. Incubation was performed with primary antibody prepared in blocking buffer with 0.1% Tween-20 (Solarbio, P8220) at 4° C. overnight (Anti-SMARCA2/BRM antibody (ab15597) 1:500; Anti-BRG1 antibody [EPR3912] (ab108318) 1:1000; Rabbit anti-Baf180 antibody [EPR15860] (Abcam, ab196022) 1:1000; mouse anti-beta-Actin (8H10D10) (CST #3700) 1:10000). The membrane was washed three times with TBST, 5 minutes each. Incubation with secondary antibody was performed for 1 hour at RT (anti-rabbit IgG (Licor, 926-32211) 1:5000; anti-mouse IgG (LI-COR, 926-68070) 1:5000). The membrane was washed three times with TBST, 5 minutes each and lastly the LiCOR was read.
The letter codes for the percentage of SMARCA degradation after 24 hours (Dmax %) include: A (>90% degradation), B (>70-90% degradation), C (50-70% degradation), and D (<50% degradation).

Sequence of SMARCA2 (P51531 whole entry): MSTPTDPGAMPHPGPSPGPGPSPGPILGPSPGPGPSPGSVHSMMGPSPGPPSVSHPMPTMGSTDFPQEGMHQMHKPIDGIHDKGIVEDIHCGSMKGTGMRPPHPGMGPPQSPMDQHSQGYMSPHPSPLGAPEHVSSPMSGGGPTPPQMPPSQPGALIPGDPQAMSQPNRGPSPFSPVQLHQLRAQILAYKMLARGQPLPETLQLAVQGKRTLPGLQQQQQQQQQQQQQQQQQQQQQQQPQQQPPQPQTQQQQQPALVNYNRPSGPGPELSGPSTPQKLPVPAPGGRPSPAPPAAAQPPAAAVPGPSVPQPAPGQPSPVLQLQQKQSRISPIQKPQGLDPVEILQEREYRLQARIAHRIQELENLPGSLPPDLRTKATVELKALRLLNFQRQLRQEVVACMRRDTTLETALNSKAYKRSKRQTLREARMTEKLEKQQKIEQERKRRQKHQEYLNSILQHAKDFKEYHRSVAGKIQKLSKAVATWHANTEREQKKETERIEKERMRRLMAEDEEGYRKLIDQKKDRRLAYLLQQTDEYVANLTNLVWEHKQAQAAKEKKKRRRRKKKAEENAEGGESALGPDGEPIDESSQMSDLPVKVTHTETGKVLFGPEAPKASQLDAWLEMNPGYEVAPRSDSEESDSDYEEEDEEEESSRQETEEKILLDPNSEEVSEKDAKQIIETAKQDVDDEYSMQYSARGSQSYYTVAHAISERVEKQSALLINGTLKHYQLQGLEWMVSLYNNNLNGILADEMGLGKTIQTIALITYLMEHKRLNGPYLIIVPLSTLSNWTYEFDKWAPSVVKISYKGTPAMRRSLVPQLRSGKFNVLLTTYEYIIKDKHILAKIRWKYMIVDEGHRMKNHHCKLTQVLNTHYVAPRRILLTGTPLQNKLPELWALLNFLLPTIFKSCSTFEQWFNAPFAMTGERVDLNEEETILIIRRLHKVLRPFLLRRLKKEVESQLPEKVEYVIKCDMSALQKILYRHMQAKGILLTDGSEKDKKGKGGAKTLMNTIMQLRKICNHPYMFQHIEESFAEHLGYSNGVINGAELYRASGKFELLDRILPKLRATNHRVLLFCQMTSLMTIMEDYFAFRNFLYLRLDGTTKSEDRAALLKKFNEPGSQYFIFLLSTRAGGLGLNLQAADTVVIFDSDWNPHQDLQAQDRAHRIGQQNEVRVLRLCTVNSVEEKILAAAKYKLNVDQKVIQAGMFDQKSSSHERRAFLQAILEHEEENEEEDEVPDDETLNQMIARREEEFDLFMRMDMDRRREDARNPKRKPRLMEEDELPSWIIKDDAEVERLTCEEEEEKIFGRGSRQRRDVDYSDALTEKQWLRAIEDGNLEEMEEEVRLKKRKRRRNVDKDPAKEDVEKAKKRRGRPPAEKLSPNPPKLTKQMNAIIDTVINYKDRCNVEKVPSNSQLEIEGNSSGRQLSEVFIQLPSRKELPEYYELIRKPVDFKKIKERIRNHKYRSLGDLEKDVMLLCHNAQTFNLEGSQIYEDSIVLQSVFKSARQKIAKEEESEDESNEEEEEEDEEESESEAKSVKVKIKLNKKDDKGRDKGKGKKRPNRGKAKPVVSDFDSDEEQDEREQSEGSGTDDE
T1 sequence (P51532 whole entry): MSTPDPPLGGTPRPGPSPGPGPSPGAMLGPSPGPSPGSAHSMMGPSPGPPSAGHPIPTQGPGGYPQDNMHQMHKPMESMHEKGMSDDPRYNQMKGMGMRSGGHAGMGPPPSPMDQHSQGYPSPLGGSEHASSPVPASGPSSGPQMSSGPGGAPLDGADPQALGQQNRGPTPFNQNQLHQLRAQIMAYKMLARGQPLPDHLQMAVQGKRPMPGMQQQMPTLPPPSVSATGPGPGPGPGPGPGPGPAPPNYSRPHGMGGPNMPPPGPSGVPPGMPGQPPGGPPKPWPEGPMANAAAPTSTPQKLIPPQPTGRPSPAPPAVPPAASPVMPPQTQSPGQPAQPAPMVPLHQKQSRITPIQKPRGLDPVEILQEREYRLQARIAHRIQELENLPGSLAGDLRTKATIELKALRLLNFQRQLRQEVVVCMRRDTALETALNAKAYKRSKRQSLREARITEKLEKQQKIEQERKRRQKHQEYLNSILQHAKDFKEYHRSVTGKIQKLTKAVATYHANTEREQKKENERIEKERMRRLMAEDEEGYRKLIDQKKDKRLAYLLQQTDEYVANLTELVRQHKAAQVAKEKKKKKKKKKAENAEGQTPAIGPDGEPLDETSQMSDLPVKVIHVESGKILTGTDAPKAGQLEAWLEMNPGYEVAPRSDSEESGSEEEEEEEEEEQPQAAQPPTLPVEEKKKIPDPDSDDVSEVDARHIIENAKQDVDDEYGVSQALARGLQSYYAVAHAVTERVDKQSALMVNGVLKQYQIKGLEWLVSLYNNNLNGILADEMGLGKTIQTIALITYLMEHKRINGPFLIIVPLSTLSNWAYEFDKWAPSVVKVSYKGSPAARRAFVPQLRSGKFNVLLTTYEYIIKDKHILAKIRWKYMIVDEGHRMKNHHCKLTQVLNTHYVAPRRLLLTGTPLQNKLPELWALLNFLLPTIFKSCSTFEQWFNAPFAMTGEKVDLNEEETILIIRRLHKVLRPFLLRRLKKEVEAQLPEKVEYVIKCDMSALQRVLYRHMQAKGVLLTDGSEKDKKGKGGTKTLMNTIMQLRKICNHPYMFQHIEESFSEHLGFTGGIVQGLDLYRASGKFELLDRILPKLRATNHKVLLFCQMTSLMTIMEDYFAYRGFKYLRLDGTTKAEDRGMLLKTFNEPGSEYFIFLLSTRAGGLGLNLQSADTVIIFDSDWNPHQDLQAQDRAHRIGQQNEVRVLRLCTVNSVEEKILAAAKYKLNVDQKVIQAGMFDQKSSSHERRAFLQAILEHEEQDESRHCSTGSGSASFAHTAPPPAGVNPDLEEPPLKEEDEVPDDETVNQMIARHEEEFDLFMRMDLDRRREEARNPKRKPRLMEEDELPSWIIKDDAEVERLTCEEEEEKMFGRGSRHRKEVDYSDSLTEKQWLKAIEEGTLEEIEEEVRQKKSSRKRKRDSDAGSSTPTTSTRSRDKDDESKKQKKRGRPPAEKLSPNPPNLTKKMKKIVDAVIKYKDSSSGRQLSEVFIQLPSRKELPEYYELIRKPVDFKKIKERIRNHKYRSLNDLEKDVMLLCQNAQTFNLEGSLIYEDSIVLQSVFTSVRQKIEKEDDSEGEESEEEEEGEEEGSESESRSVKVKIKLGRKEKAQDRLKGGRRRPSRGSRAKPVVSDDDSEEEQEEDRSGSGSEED

| Compound | Dmax (SMARCA2) | DC50 (SMARCA2) | Dmax (SMARCA4) | DC50 (SMARCA4) |
| --- | --- | --- | --- | --- |
| Cc1ncsc1-c1ccc(CNC(=O)[C@@H]2C[C@@H](O)CN2C(=O)[C@@H](NC(=O)CCCCCC2CCC(N3CCC(Cn4cc(-c5cc(-c6ccccc6O)nnc5N)cn4)CC3)CC2)C(C)(C)C)cc1 (some centres unmarked) [I-330] | > 90% | 100 to 500 nM | 70 to 90% | < 100 nM |
| COc1ccccc1-c1cc(N2CC3CCC(C2)N3c2ncc([C@H]3CC[C@@H](CC(=O)N[C@H](C(=O)N4C[C@H](O)C[C@H]4C(=O)NCc4ccc(-c5scnc5C)cc4)C(C)(C)C)CC3)cn2)c(N)nn1 [I-331] | > 90% | 100 to 500 nM | > 90% | < 100 nM |
| Cc1ncsc1-c1ccc(CNC(=O)[C@@H]2C[C@@H](O)CN2C(=O)[C@@H](NC(=O)C[C@H]2CC[C@H](c3cnc(N4C5CCC4CN(c4cc(-c6ccccc6O)nnc4N)C5)nc3)CC2)C(C)(C)C)cc1 [I-332] | > 90% | < 100 nM | > 90% | < 100 nM |
| Cc1ncsc1-c1ccc(CNC(=O)[C@@H]2C[C@@H](O)CN2C(=O)[C@@H](NC(=O)N[C@H]2CC[C@H](c3cnc(N4C5CCC4CN(c4cc(-c6ccccc6O)nnc4N)C5)nc3)CC2)C(C)(C)C)cc1 [I-333] | < 50% | > 1000 nM | > 90% | < 100 nM |
| Cc1ncsc1-c1ccc(CNC(=O)[C@@H]2C[C@@H](O)CN2C(=O)[C@@H](NC(=O)N[C@H]2CC[C@@H](c3cnc(N4C5CCC4CN(c4cc(-c6ccccc6O)nnc4N)C5)nc3)CC2)C(C)(C)C)cc1 [I-334] | 70 to 90% | 501 to 1000 nM | > 90% | < 100 nM |
| Cc1ncsc1-c1ccc(CNC(=O)[C@@H]2C[C@@H](O)CN2C(=O)[C@@H](NC(=O)Cc2ccc(-c3cnc(N4C5CCC4CN(c4cc(-c6ccccc6O)nnc4N)C5)nc3)cc2)C(C)(C)C)cc1 [I-335] | > 90% | < 100 nM | > 90% | < 100 nM |
| Cc1ncsc1-c1ccc(CNC(=O)[C@@H]2C[C@@H](O)CN2C(=O)[C@@H](NC(=O)C2CCN(Cc3cnc(N4C5CCC4CN(c4cc(-c6ccccc6O)nnc4N)C5)nc3)CC2)C(C)(C)C)cc1 [I-338] | > 90% | 100 to 500 nM | > 90% | < 100 nM |
| Cc1ncsc1-c1ccc(CNC(=O)[C@@H]2C[C@@H](O)CN2C(=O)[C@@H](NC(=O)N2CCN(Cc3cnc(N4C5CCC4CN(c4cc(-c6ccccc6O)nnc4N)C5)nc3)CC2)C(C)(C)C)cc1 [I-339] | 70 to 90% | 100 to 500 nM | > 90% | < 100 nM |
| Cc1ncsc1-c1ccc(CNC(=O)[C@@H]2C[C@@H](O)CN2C(=O)[C@@H](NC(=O)COCC#Cc2cnc(N3C4CCC3CN(c3cc(-c5ccccc5O)nnc3N)C4)nc2)C(C)(C)C)cc1 [I-340] | > 90% | 100 to 500 nM | > 90% | < 100 nM |
| Cc1ncsc1-c1ccc(CNC(=O)[C@@H]2C[C@@H](O)CN2C(=O)[C@@H](NC(=O)CCCC#Cc2cnc(N3C4CCC3CN(c3cc(-c5ccccc5O)nnc3N)C4)nc2)C(C)(C)C)cc1 [I-341] | > 90% | 100 to 500 nM | > 90% | < 100 nM |
| Cc1ncsc1-c1ccc(CNC(=O)[C@@H]2C[C@@H](O)CN2C(=O)[C@@H](NC(=O)C2CCN(C(=O)c3cnc(N4C5CCC4CN(c4cc(-c6ccccc6O)nnc4N)C5)nc3)CC2)C(C)(C)C)cc1 [I-342, 1-[2-[3-[3-amino-6-(2-hydroxyphenyl)pyridazin-4-yl]-3,8-diazabicyclo [3.2.1]octan-8-yl]pyrimidine-5-carbonyl]-N-[(1S)-1-[(2S,4R)-4-hydroxy-2-[[4-(4-methylthiazol-5-yl)phenyl]methylcarbamoyl]pyrrolidine-1-carbonyl]-2,2-dimethyl-propyl]piperidine-4-carboxamide] | < 50% | > 1000 nM | 70 to 90% | 100 to 500 nM |
| Cc1ncsc1-c1ccc(CNC(=O)[C@@H]2C[C@@H](O)CN2C(=O)[C@@H](NC(=O)N2CCN(C(=O)c3cnc(N4C5CCC4CN(c4cc(-c6ccccc6O)nnc4N)C5)nc3)CC2)C(C)(C)C)cc1 [I-343] | < 50% | > 1000 nM | > 90% | 100 to 500 nM |
| Cc1ncsc1-c1ccc(CNC(=O)[C@@H]2C[C@@H](O)CN2C(=O)[C@@H](NC(=O)C(=O)N2CCC(c3cnc(N4C5CCC4CN(c4cc(-c6ccccc6O)nnc4N)C5)nc3)CC2)C(C)(C)C)cc1 [I-344] | < 50% | > 1000 nM | 50 to 70% | > 1000 nM |
| Cc1cc(CC(=O)N[C@H](C(=O)N2C[C@H](O)C[C@H]2C(=O)NCc2ccc(-c3scnc3C)cc2)C(C)(C)C)ccc1-c1cnc(N2C3CCC2CN(c2cc(-c4ccccc4O)nnc2N)C3)nc1 [I-345] | > 90% | < 100 nM | > 90% | < 100 nM |
| Cc1ncsc1-c1ccc(CNC(=O)[C@@H]2C[C@@H](O)CN2C(=O)C(NC(=O)C[C@H]2CC[C@@H](N3CCC(c4cnc(N5C6CCC5CN(c5cc(-c7ccccc7O)nnc5N)C6)nc4)CC3)CC2)C(C)(C)C)cc1 (some centres unmarked) [I-346] | > 90% | 100 to 500 nM | 70 to 90% | < 100 nM |
| Cc1ncsc1-c1ccc(CNC(=O)[C@@H]2C[C@@H](O)CN2C(=O)[C@@H](NC(=O)[C@H]2CC[C@@H](N3CCC(c4cnc(N5C6CCC5CN(c5cc(-c7ccccc7O)nnc5N)C6)nc4)CC3)CC2)C(C)(C)C)cc1 [I-347] | 70 to 90% | 100 to 500 nM | 50 to 70% | > 1000 nM |
| Cc1ncsc1-c1ccc(CNC(=O)[C@@H]2C[C@@H](O)CN2C(=O)[C@@H](NC(=O)c2ccc(CN3CCC(c4cnc(N5C6CCC5CN(c5cc(-c7ccccc7O)nnc5N)C6)nc4)CC3)cc2)C(C)(C)C)cc1 [I-348] | > 90% | < 100 nM | > 90% | < 100 nM |
| Cc1ncsc1-c1ccc(CNC(=O)[C@@H]2C[C@@H](O)CN2C(=O)[C@@H](NC(=O)N2CCC(N3CCC(c4cnc(N5C6CCC5CN(c5cc(-c7ccccc7O)nnc5N)C6)nc4)CC3)CC2)C(C)(C)C)cc1 [I-350, 4-(2-(3-(3-amino-6-(2-hydroxyphenyl)pyridazin-4-yl)-3,8-diazabicyclo [3.2.1]octan-8-yl)pyrimidin-5-yl)-N—((S)-1-((2S,4R)-4-hydroxy-2-((4-(4-methylthiazol-5-yl)benzyl)carbamoyl)pyrrolidin-1-yl)-3,3-dimethyl-1-oxobutan-2-yl)-[1,4′-bipiperidine]-1′-carboxamide] | < 50% | > 1000 nM | < 50% | > 1000 nM |
| Cc1ncsc1-c1ccc(CNC(=O)[C@@H]2C[C@@H](O)CN2C(=O)[C@@H](NC(=O)CCCCN2CCC(CN3CCC(Cn4cc(-c5cc(-c6ccccc6O)nnc5N)cn4)CC3)CC2)C(C)(C)C)cc1 [I-351] | < 50% | > 1000 nM | < 50% | > 1000 nM |
| Cc1ncsc1-c1ccc(CNC(=O)[C@@H]2C[C@@H](O)CN2C(=O)[C@@H](NC(=O)CCCCN2CCC(C(=O)N3CCC(Cn4cc(-c5cc(-c6ccccc6O)nnc5N)cn4)CC3)CC2)C(C)(C)C)cc1 [I-352] | < 50% | > 1000 nM | < 50% | > 1000 nM |
| Cc1ncsc1-c1ccc(CNC(=O)[C@@H]2C[C@@H](O)CN2C(=O)[C@@H](NC(=O)c2ccc(-c3ccc(N4CCC(Cn5cc(-c6cc(-c7ccccc7O)nnc6N)cn5)CC4)cc3)cc2)C(C)(C)C)cc1 [I-353] | < 50% | > 1000 nM | 70 to 90% | > 1000 nM |
| Cc1ncsc1-c1ccc(CNC(=O)[C@@H]2C[C@@H](O)CN2C(=O)[C@@H](NC(=O)[C@H]2CC[C@H](N3CCC(c4cnc(N5C6CCC5CN(c5cc(-c7ccccc7O)nnc5N)C6)nc4)CC3)CC2)C(C)(C)C)cc1 [I-355] | > 90% | 100 to 500 nM | 70 to 90% | 100 to 500 nM |
| Cc1ncsc1-c1ccc(CNC(=O)[C@@H]2C[C@@H](O)CN2C(=O)[C@@H](NC(=O)[C@H]2C[C@H](N3CCC(c4cnc(N5C6CCC5CN(c5cc(-c7ccccc7O)nnc5N)C6)nc4)CC3)C2)C(C)(C)C)cc1 [I-356] | 70 to 90% | 100 to 500 nM | > 90% | < 100 nM |
